Legend:
[1] = molecular target: T1, recombinant human CYP11B1 (Homo sapiens, UniProt P15538); test: CYP11B1 enzyme assay, enzyme enriched microsomes from V79-4 cells, cortisol by LC-MS; assay type: biochemical; settings: IC50 ranges; run at Km of 11-deoxycortisol; read-out: hCYP11B1 IC50
T1 construct: made in house; host or cells: V79-4 cells (enzyme enriched microsomal fraction of cell lysates)
T1 sequence (P15538 25-503): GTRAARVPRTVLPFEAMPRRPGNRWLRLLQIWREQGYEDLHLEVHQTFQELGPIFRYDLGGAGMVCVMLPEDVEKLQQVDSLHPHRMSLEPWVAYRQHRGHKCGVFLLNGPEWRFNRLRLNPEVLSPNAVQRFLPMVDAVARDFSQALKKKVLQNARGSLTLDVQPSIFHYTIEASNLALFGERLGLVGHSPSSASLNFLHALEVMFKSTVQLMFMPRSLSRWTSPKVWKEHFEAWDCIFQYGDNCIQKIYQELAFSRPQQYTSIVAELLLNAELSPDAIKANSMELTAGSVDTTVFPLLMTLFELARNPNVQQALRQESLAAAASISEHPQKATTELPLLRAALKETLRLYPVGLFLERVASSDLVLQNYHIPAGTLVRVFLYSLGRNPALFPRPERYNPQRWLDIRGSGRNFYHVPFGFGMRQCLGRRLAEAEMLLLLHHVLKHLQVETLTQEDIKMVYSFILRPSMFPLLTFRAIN
Description: (§1) An enzyme enriched microsomal fraction was prepared from cellular lysates and subsequently used as the enzyme source for determining inhibitor IC50s. […] Enzyme assays for inhibitor screening employed CYP11B2 and CYP11B1 enzyme enriched microsomes and were run at the Km of the respective substrates. Products of the enzyme reactions, aldosterone for CYP11B2 or cortisol for CYP11B1, were measured by LC-MS. Assays were run under conditions of less than 20% substrate turnover. Inhibitor IC50s were generated by determining the product formation in the absence or presence of inhibitor at various concentrations. In the absence of the test compound, the product formed (Pt) in each data set was defined as 100% activity. In the absence of enzyme, the product formed (Pb) in each data set was defined as 0% activity. The percent activity in the presence of each inhibitor was calculated according to the following equation: % activity=(P−Pb)/(Pt−Pb), where P=the product formed in the presence of the inhibitor.

[2] = molecular target: T2, recombinant human CYP11B2 (Homo sapiens, UniProt P19099); test: CYP11B2 enzyme assay, enzyme enriched microsomes from V79-4 cells, aldosterone by LC-MS; assay type: biochemical; settings: IC50 ranges; run at Km of 11-deoxycorticosterone; read-out: hCYP11B2 IC50
T2 construct: made in house; host or cells: V79-4 cells (enzyme enriched microsomal fraction of cell lysates)
T2 sequence (P19099 25-503): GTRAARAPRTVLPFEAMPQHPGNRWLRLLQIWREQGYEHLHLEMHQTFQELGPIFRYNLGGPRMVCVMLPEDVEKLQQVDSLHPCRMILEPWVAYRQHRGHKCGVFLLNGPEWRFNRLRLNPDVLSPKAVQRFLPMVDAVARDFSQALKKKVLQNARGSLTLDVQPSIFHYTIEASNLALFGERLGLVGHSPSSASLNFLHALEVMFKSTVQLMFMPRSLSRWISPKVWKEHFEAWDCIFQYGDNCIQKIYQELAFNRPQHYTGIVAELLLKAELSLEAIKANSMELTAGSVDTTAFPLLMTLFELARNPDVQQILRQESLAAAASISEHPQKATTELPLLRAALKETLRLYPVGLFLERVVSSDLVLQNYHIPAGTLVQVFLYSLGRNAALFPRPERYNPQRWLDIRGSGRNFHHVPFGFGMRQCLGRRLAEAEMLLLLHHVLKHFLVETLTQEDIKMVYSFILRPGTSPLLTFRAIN
Description: as §1

SMILES	IC50 [1]	IC50 [2]
CNc1ncncc1-c1nc2ccc(C#N)cc2n1C1CC1 [Example 39, 1-Cyclopropyl-2-(4-(methylamino)pyrimidin-5-yl)-1H-benzo[d]imidazole-6-carbonitrile]	0.1 to 1 µM	0.001 to 0.1 µM
Fc1cc2nc(-c3cncnc3C3CC3)n(C3CC3)c2cc1F [Example 72, 1-Cyclopropyl-2-(4-cyclopropylpyrimidin-5-yl)-5,6-difluoro-1H-benzo[d]imidazole]	> 10 µM	0.1 to 1 µM
Cc1ncc(-c2nc3ccc(F)cc3n2C2CC2)cn1 [Example 20, 1-Cyclopropyl-6-fluoro-2-(2-methylpyrimidin-5-yl)-1H-benzo[d]imidazole]	> 10 µM	1 to 10 µM
Fc1ccc2nc(-c3cncnc3)n(C3CC3)c2c1F [Example 2, 1-Cyclopropyl-6,7-difluoro-2-(pyrimidin-5-yl)-1H-benzo[d]imidazole]	1 to 10 µM	0.1 to 1 µM
Cc1ncncc1-c1nc2cnc(Cl)cc2n1C1CC1 [Example 55, 6-Chloro-1-cyclopropyl-2-(4-methylpyrimidin-5-yl)-1H-imidazo[4,5-c]pyridine]	> 10 µM	0.1 to 1 µM
CCCc1ncncc1-c1nc2ccc(F)cc2n1C1CC1 [Example 14, 1-Cyclopropyl-6-fluoro-2-(4-propylpyrimidin-5-yl)-1H-benzo[d]imidazole]	1 to 10 µM	0.001 to 0.1 µM
CS(=O)(=O)c1ccc2nc(-c3cncnc3)n(C3CC3)c2c1 [Example 26, 1-Cyclopropyl-6-(methylsulfonyl)-2-(pyrimidin-5-yl)-1H-benzo[d]imidazole]	> 10 µM	1 to 10 µM
COc1ccc2nc(-c3cncnc3C)n(C3CC3)c2n1 [Example 58, 3-Cyclopropyl-5-methoxy-2-(4-methylpyrimidin-5-yl)-3H-imidazo[4,5-b]pyridine]	> 10 µM	0.1 to 1 µM
Fc1cc2nc(-c3cncnc3)n(C3CC3)c2cc1F [Example 7, 1-Cyclopropyl-5,6-difluoro-2-(pyrimidin-5-yl)-1H-benzo[d]imidazole]	1 to 10 µM	0.001 to 0.1 µM
CCc1ncncc1-c1nc2ccc(F)cc2n1C1CC1 [Example 5, 1-Cyclopropyl-2-(4-ethylpyrimidin-5-yl)-6-fluoro-1H-benzo[d]imidazole]	1 to 10 µM	0.001 to 0.1 µM
CCn1c(-c2cncnc2C(F)(F)F)nc2ccc(C#N)nc21 [Example 69, 3-ethyl-2-(4-(trifluoromethyl)pyrimidin-5-yl)-3H-imidazo[4,5-b]pyridine-5-carbonitrile]	> 10 µM	0.1 to 1 µM
N#Cc1ccc2nc(-c3cncnc3)n(CC(F)(F)F)c2c1 [Example 43, 2-(Pyrimidin-5-yl)-1-(2,2,2-trifluoroethyl)-1H-benzo[d]imidazole-6-carbonitrile]	> 10 µM	1 to 10 µM
FC(F)(F)Oc1ccc2nc(-c3cncnc3)n(C3CC3)c2c1 [Example 42, 1-Cyclopropyl-2-(pyrimidin-5-yl)-6-(trifluoromethoxy)-1H-benzo[d]imidazole]	1 to 10 µM	0.1 to 1 µM
Fc1ccc2nc(-c3cnc(Cl)nc3Cl)n(C3CC3)c2c1 [Example 35, 1-Cyclopropyl-2-(2,4-dichloropyrimidin-5-yl)-6-fluoro-1H-benzo[d]imidazole]	> 10 µM	1 to 10 µM
CCCc1ncncc1-c1nc2ccc(C#N)cc2n1C1CC1 [Example 40, 1-Cyclopropyl-2-(4-propylpyrimidin-5-yl)-1H-benzo[d]imidazole-6-carbonitrile]	0.1 to 1 µM	0.001 to 0.1 µM
Fc1ccc2nc(-c3cncnc3C(F)F)n(C3CC3)c2c1 [Example 15, 1-Cyclopropyl-2-(4-(difluoromethyl)pyrimidin-5-yl)-6-fluoro-1H-benzo[d]imidazole]	1 to 10 µM	0.001 to 0.1 µM
CCn1c(-c2cncnc2C(F)F)nc2ccc(C#N)cc21 [Example 51, 2-(4-(Difluoromethyl)pyrimidin-5-yl)-1-ethyl-1H-benzo[d]imidazole-6-carbonitrile]	> 10 µM	0.001 to 0.1 µM
CCn1c(-c2cncnc2C)nc2ccc(C#N)cc21 [Example 18, 1-Ethyl-2-(4-methylpyrimidin-5-yl)-1H-benzo[d]imidazole-6-carbonitrile]	1 to 10 µM	0.001 to 0.1 µM
FC(F)c1ncncc1-c1nc2ccc(Cl)nc2n1C1CC1 [Example 62, 5-Chloro-3-cyclopropyl-2-(4-(difluoromethyl)pyrimidin-5-yl)-3H-imidazo[4,5-b]pyridine]	1 to 10 µM	0.1 to 1 µM
CC(C)(C)Nc1ncncc1-c1nc2cc(F)c(F)cc2n1C1CC1 [Example 34, N-(tert-Butyl)-5-(1-cyclopropyl-5,6-difluoro-1H-benz[d]imidazol-2-yl)pyrimidin-4-amine]	0.1 to 1 µM	0.001 to 0.1 µM
FC(F)(F)c1ncncc1-c1nc2cc(Cl)cnc2n1C1CC1 [Example 66, 6-Chloro-3-cyclopropyl-2-(4-(trifluoromethyl)pyrimidin-5-yl)-3H-imidazo[4,5-b]pyridine]	> 10 µM	1 to 10 µM
N#Cc1ccc2nc(-c3cncnc3C(F)(F)F)n(C3CC3)c2c1 [Example 60, 1-Cyclopropyl-2-(4-(trifluoromethyl)pyrimidin-5-yl)-1H-benzo[d]imidazole-6-carbonitrile]	1 to 10 µM	0.001 to 0.1 µM
Cc1ncncc1-c1nc2ccc(C#N)cc2n1CC(F)(F)F [Example 49, 2-(4-Methylpyrimidin-5-yl)-1-(2,2,2-trifluoroethyl)-1H-benzo[d]imidazole-6-carbonitrile]	> 10 µM	0.1 to 1 µM
CCc1ncncc1-c1nc2ccc(C#N)cc2n1C1CC1 [Example 8, 1-Cyclopropyl-2-(4-ethylpyrimidin-5-yl)-1H-benzo[d]imidazole-6-carbonitrile]	1 to 10 µM	0.001 to 0.1 µM
Fc1cc2nc(-c3cncnc3NCCC(F)(F)F)n(C3CC3)c2cc1F [Example 37, 5-(1-Cyclopropyl-5,6-difluoro-1H-benzo[d]imidazol-2-yl)-N-(3,3,3-trifluoropropyl)pyrimidin-4-amine]	0.1 to 1 µM	0.001 to 0.1 µM
CCc1ncncc1-c1nc2ccc(F)cc2n1CC [Example 16, 1-Ethyl-2-(4-ethylpyrimidin-5-yl)-6-fluoro-1H-benzo[d]imidazole]	1 to 10 µM	0.1 to 1 µM
CCn1c(-c2cncnc2)cc2ccc(Cl)cc21 [Example 47, 6-Chloro-1-ethyl-2-(pyrimidin-5-yl)-1H-indole]	0.1 to 1 µM	0.001 to 0.1 µM
N#Cc1ccc2nc(-c3cncnc3)n(C3CC3)c2c1 [Example 3, 1-Cyclopropyl-2-(pyrimidin-5-yl)-1H-benzo[d]imidazole-6-carbonitrile]	1 to 10 µM	0.001 to 0.1 µM
N#Cc1ccc2nc(-c3cncnc3C(F)F)n(C3CC3)c2n1 [Example 63, 3-Cyclopropyl-2-(4-(difluoromethyl)pyrimidin-5-yl)-3H-imidazo[4,5-b]pyridine-5-carbonitrile]	1 to 10 µM	0.001 to 0.1 µM
c1ncc(-c2nc3c(n2C2CC2)CCCC3)cn1 [Example 57, 1-Cyclopropyl-2-(pyrimidin-5-yl)-4,5,67-tetrahydro-1H-benzo[d]imidazole]	> 10 µM	1 to 10 µM

— patent US11919883B2, “Metalloenzyme inhibitor compounds” (Ji Xing Pharmaceuticals Hong Kong Limited, priority 2016, dated 2024)
